Reference: paper PMC8997995, “Amphiphilic Cell-Penetrating Peptides Containing Natural and Unnatural Amino Acids as Drug Delivery Agents” (Cells, 2022)
Where two headings read alike, the source gives them in different places. Non-standard residues stand in square brackets, D forms with d. Residues, ends and D or L forms follow the SMILES beside them. Dip = N[C@H](C(=O)O)C(c1ccccc1)c1ccccc1

Legend:
[1] = Transmission electron microscopy, self-assembly; type: physicochemical; conditions: TEM, 30 μM, dried on grid overnight, not stained
Experimental: Transmission electron microscopy (TEM) was done on a LVEM 5D Microscope model (Delong instruments, Brno, Czech Republic) samples were prepared on an Ultrathin Carbon Film on Lacey Carbon Support Film with 400 mesh copper from Ted Pella. Dilute solutions of 30 μM concentration were used for the TEM analysis. Samples were dropped on grids, evaporated overnight, and not stained. They were incubated for approximately 2 h after thawing from a freezer (0 to −18 °C). Samples were air-dried, and images were obtained with a LVEM5 (Delong Instruments, US) 5 keV field emission gun. The camera was Zyla 5.5 Scientific CMOS with specifications of exposure 50–200 [ms], pixel readout 200 MHz—lowest noise, dynamic range 12-bit (low noise), and summing 1.

[2] = tested on: SK-OV-3 cells; type: cell-based, human; conditions: MTS, n = 3
Experimental: SK-OV-3, CCRF-CEM, HEK-293, MDA-MB-468, LLC-PK1, and MES-SA were used to determine the cytotoxicity of the synthesized linear and cyclic peptides. About 5000, 10,000, and 50,000 cells were seeded for SK-OV-3, HEK-293, and CCRF-CEM cells, respectively, in 0.1 mL of medium per well of 96-well plates. An appropriate medium was used for each cell line (SK-OV-3: McCoy’s 5A with L-glutamine containing fetal bovine serum (FBS) (10%) and penicillin or streptomycin (1%); CCRF-CEM: RPMI-1640 medium with L-glutamine and sodium bicarbonate containing FBS (10%) and penicillin or streptomycin (1%); MDA-MB-468 cells: DMEM/F12 (1:1) (1×) with L-glutamine and 15 mM HEPES containing FBS (10%) and penicillin or streptomycin (1%); LLC-PK1 cells: Dulbecco’s Modified Eagle’s Medium with 4500 mg/L glucose, L-glutamine and sodium bicarbonate, without sodium pyruvate liquid containing FBS (10%) and penicillin or streptomycin (1%); MES-SA cells: consisting of half SK-OV-3 and half CCRF-CEM media; and HEK-293 cells: Minimum Essential Medium Eagle with Earle’s salts and sodium bicarbonate, without L-glutamine containing FBS (10%) and penicillin or streptomycin (1%)). Then, 20 µL of peptides containing 5% DMSO in water were added to each well.
Adhesive cells were detached with 0.05% trypsin/EDTA after 15 min. The suspended cells were seeded in the medium 24 h prior to the experiment according to the previously reported procedure. The medium was changed before adding the peptides for adherent cells. Each concentration 5, 10, 25, 50, and 166 µM (containing 0.8% DMSO) had triplicate wells to minimize possible errors. […] The cell viability was measured by utilizing Multi-Mode Microplate Reader (SpectraMax M5 model, Molecular Devices, San Jose, CA, USA) after adding 20 µL of the MTS reagent to each well and incubating for 3 additional hours. […] The protocol manager was selected “endpoint” on the spectrophotometer’s software (SoftMax Pro 7). The 96-well plates were inserted inside spectrophotometer, and the data were acquired. The percentage of cell viability was calculated using the following equation:(1) =(Average OD values of samples treated with the compound /Average OD values of no treatment samples )∗100

[3] = tested on: MES-SA cells; assay: In vitro cytotoxicity (MTS) in MES-SA cells; type: cell-based, human; conditions: 10 µM, 24 h incubation, n = 3
Experimental: (§1) SK-OV-3, CCRF-CEM, HEK-293, MDA-MB-468, LLC-PK1, and MES-SA were used to determine the cytotoxicity of the synthesized linear and cyclic peptides. About 5000, 10,000, and 50,000 cells were seeded for SK-OV-3, HEK-293, and CCRF-CEM cells, respectively, in 0.1 mL of medium per well of 96-well plates. […]
(§2) Adhesive cells were detached with 0.05% trypsin/EDTA after 15 min. […] The cell viability was measured by utilizing Multi-Mode Microplate Reader (SpectraMax M5 model, Molecular Devices, San Jose, CA, USA) after adding 20 µL of the MTS reagent to each well and incubating for 3 additional hours. […] The percentage of cell viability was calculated using the following equation:(1) =(Average OD values of samples treated with the compound /Average OD values of no treatment samples )∗100

[4] = Plasma stability study; type: in vitro ADME; conditions: 500 µM in 25% human plasma in water, 37 °C
Experimental: The metabolic stability of [DipR]5 was assessed in human plasma by using a high-resolution mass spectrometer (LC-QTOF-MS). To remove the background interference, the data were processed by using a narrower (±0.1 m/z) extracted ion chromatogram (EIC) window. Test compound (500 µM) was incubated in 25% human plasma in water at 37 °C. 50 µL aliquots were taken at different time points (0, 0.5, 1, 2, 3, and 13 h), and the plasma proteins were precipitated by the addition of cold ethanol (50 µL) and incubated for 5 min in ice and water. The samples were centrifuged at 7000 RPM for 5 min, and the supernatant (10 µL) was injected into LC-QTOF-MS (Impact II model, Bruker Daltonik, Bremen, Germany). The samples were analyzed on Waters Xterra MS C18 5 µm 2.10 mm × 50 mm column at a flow rate of 0.3 mL/min using a linear gradient of aqueous ACN in the presence of formic acid (0.1%, v/v) as ion pair reagent. The analytes were quantified by their peak areas of EIC. The percentage digestion of the test compound was calculated relative to the peak areas at 0 min.

[5] = tested on: LLC-PK1 cells; assay: In vitro cytotoxicity (MTS) in LLC-PK1 cells; type: cell-based, pig; conditions: LLC-PK1, 10 µM, 24 h and 72 h incubation
Experimental: as §1, §2

[6] = tested on: MDA-MB-231 cells; assay: Cellular uptake of F’-siRNA by flow cytometry in MDA-MB-231 cells; type: cell-based, human; conditions: MDA-MB-231, F’-siRNA 36 nM, n = 3

morphology of self-assembled structures [1]: aggregation | size of self-assembled structures [1]: ≤ 30 nm
Structure (SMILES): N=C(N)NCCC[C@@H]1NC(=O)[C@H](C(c2ccccc2)c2ccccc2)NC(=O)[C@H](CCCNC(=N)N)NC(=O)[C@H](C(c2ccccc2)c2ccccc2)NC(=O)[C@H](CCCNC(=N)N)NC(=O)[C@H](C(c2ccccc2)c2ccccc2)NC(=O)[C@H](CCCNC(=N)N)NC(=O)[C@H](C(c2ccccc2)c2ccccc2)NC(=O)[C@H](CCCNC(=N)N)NC(=O)[C@H](C(c2ccccc2)c2ccccc2)NC1=O [[DipR]5] (cyclo([Dip]R[Dip]R[Dip]R[Dip]R[Dip]R))
reduction of cell proliferation ([2]; SK-OV-3, 10 µM, 72 h incubation): 75% | reduction of cell proliferation ([2]; SK-OV-3, 25 µM, 24 h incubation): 81% | reduction of cell proliferation [3]: 38% | stability in human plasma ([4]; 0-13 h, LC-QTOF-MS): high stability | metabolised at 1 h, 500 µM ([4]; after 1 h, LC-QTOF-MS EIC peak area relative to 0 min, read-out: degradation in human plasma): ~15% | cytotoxicity [5]: no significant cytotoxicity | increase of cellular uptake of F’-siRNA vs siRNA alone ([6]; N/P ratio 10, 24 h): 30 fold | increase of cellular uptake of F’-siRNA vs siRNA alone ([6]; N/P ratio 20, 24 h): 50 fold
